Experiments:
Assay type in all cases: ADME
[1] = Rate constant at 30 degree C in phosphate buffer pH 7.1, 0.5 % acetonitrile was expressed as Kcat/KM
[2] = Rate constant ratio at 30 degree C in phosphate buffer pH 7.1, 0.5 % acetonitrile
[3] = Rate constant with triethylamine at 30 degree C in 0.1 M potassium chloride was expressed as Kamine
[4] = Kinetic parameter for antibody-catalyzed Kemp elimination, at pH 7.1, 30C, using 5% acetonitrile and 4B2 as catalyst was expressed as KM
[5] = Kinetic parameter for antibody-catalyzed Kemp elimination, at pH 7.1, 30C, using 10% acetonitrile and 4B2 as catalyst was expressed as Kcat/KM
[6] = Kinetic parameter for antibody-catalyzed Kemp elimination, at pH 7.1, 30C, using 5% acetonitrile and 4B2 as catalyst was expressed as Kcat/KM
[7] = Kinetic parameter for antibody-catalyzed Kemp elimination, at pH 7.1, 30C, using 1% acetonitrile and 4B2 as catalyst was expressed as Kcat/Kuncat
[8] = Kinetic parameter for antibody-catalyzed Kemp elimination, at pH 7.1, 30C, using 5% acetonitrile and 4B2 as catalyst was expressed as Kcat/Kuncat
[9] = Kinetic parameter for antibody-catalyzed Kemp elimination, at pH 7.1, 30C, using 1% acetonitrile and 4B2 as catalyst was expressed as Kcat
[10] = Kinetic parameter for antibody-catalyzed Kemp elimination, at pH 7.1, 30C, using 5% acetonitrile and 4B2 as catalyst was expressed as Kcat
[11] = Kinetic parameter for antibody-catalyzed Kemp elimination, at pH 7.1, 30C, using 0.25% acetonitrile and 4B2 as catalyst was expressed as Kcat/KM
[12] = Kinetic parameter for antibody-catalyzed Kemp elimination, at pH 7.1, 30C, using 1% acetonitrile and 4B2 as catalyst was expressed as Kcat/KM
[13] = Kinetic parameter for antibody-catalyzed Kemp elimination, at pH 7.1, 30C, using 1% acetonitrile and 6C2 as catalyst was expressed as Kcat/KM
[14] = Kinetic parameter for antibody-catalyzed Kemp elimination, at pH 7.1, 30C, using 1% acetonitrile and 4B2 as catalyst was expressed as KM

| k cat/Km [1] [M⁻¹ s⁻¹] | Ratio [2] | K amine [3] [M⁻¹ s⁻¹] | Km [4] [µM] | k cat/Km [5] [M⁻¹ s⁻¹] | k cat/Km [6] [M⁻¹ s⁻¹] | k cat/Kuncat [7] | k cat/Kuncat [8] | k cat [9] [s⁻¹] | k cat [10] [s⁻¹] | k cat/Km [11] [M⁻¹ s⁻¹] | k cat/Km [12] [M⁻¹ s⁻¹] | k cat/Km [13] [M⁻¹ s⁻¹] | Km [14] [µM] | Structure (SMILES) |
| --- | --- | --- | --- | --- | --- | --- | --- | --- | --- | --- | --- | --- | --- | --- |
| 6 | 38 | 0.16 | – | – | – | – | – | – | – | – | – | – | – | O=[N+]([O-])c1ccc2cnoc2c1 |
| 39 | 48 | 0.82 | 2100 | 5.9 | 10.1 | 18000 | 6300 | 0.035 | 0.022 | 53 | 29.1 | 1.4 | 1200 | O=[N+]([O-])c1ccc2oncc2c1 |
| 0.6 | 32 | 0.0185 | – | – | – | – | – | – | – | – | – | – | – | c1ccc2oncc2c1 [BENZO[D]ISOXAZOLE] |

Source: ChEMBL document CHEMBL1130544, “Catalysis of the Kemp elimination by antibodies elicited against a cationic hapten” (Bioorg Med Chem Lett, 1997)
